# Experimental data as given in PubChem BioAssay (NCI).
#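 Cells were grown in 96-well plates and exposed to each compound for 48 hours at five concentrations; endpoints were interpolated linearly between bracketing concentrations, or set to the highest concentration if not reached. Abbreviation: GI50, concentration required for 50% inhibition of growth. TGI marks complete inhibition of growth.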
# Assays:
# Assay in all cases: NCI tumour cell line growth inhibition, 48 h
# KM12 colon = test system: KM12 colon
# RXF 393 renal = test system: RXF 393 renal
# NCI-H226 lung = test system: NCI-H226 lung
# SF-268 CNS = test system: SF-268 CNS
# MDA-MB-435 = test system: MDA-MB-435
# SK-OV-3 ovarian = test system: SK-OV-3 ovarian
# HCT-15 colon = test system: HCT-15 colon
# K-562 leukemia = test system: K-562 leukemia
# M14 melanoma = test system: M14 melanoma
# EKVX NSCLC = test system: EKVX NSCLC
Structure (SMILES),GI50 (KM12 colon) [µM],TGI (KM12 colon) [µM],GI50 (RXF 393 renal) [µM],TGI (RXF 393 renal) [µM],GI50 (NCI-H226 lung) [µM],TGI (NCI-H226 lung) [µM],GI50 (SF-268 CNS) [µM],TGI (SF-268 CNS) [µM],GI50 (MDA-MB-435) [µM],TGI (MDA-MB-435) [µM],GI50 (SK-OV-3 ovarian) [µM],TGI (SK-OV-3 ovarian) [µM],GI50 (HCT-15 colon) [µM],TGI (HCT-15 colon) [µM],GI50 (K-562 leukemia) [µM],TGI (K-562 leukemia) [µM],GI50 (M14 melanoma) [µM],TGI (M14 melanoma) [µM],TGI (EKVX NSCLC) [µM],GI50 (EKVX NSCLC) [µM]
CCC/C(=N/N=C(N)N)c1ccc(NC(=O)c2cc3cc(OC)ccc3[nH]2)cc1,2.28,4.78,10.6,30.8,14.7,41.7,5.22,29.9,3.81,21.7,13.9,29.6,14.5,36.1,,,,,,
O=C1C(=O)c2ccccc2C(O)=C1CC=C(Br)Br,3.14,64.9,14.3,80.7,11.6,53.2,2.66,> 100,5.26,98,10.5,59.8,0.368,> 100,1.33,> 100,7.38,55.4,,
CCn1c(CN2CCN(Cc3ccccc3)CC2)nc2cc(NC(=O)c3cccs3)ccc21,14.8,32,12.5,33.1,15.2,41.5,25.4,97.9,14.8,28.9,25.7,71.6,14.1,51.6,15.1,87.9,16.9,33.4,,
BrC1=CC=C2NC=CC3=CC=NC1C32 (centres undefined),,> 100,,51.7,,45.9,,> 92.5,,,,> 100,,> 100,,52.8,,56.2,> 96.3,
O=C(CO)CC(=O)C(=O)Nc1ccccc1,,> 100,,> 100,,> 100,,> 100,,,,> 100,,> 100,,> 100,,> 100,> 100,
CCCCCCCCCCCCCC(=O)CC(=O)c1c(O)cccc1O,,> 100,,> 100,,80.3,,> 100,,,,> 100,,58.8,,48.2,,> 100,68.8,
N#CC(C(=O)/C(=N/N)C(C#N)c1ccccc1)c1ccccc1 (centres undefined),,> 100,,> 100,,> 100,,> 100,,,,> 100,,> 100,,> 100,,> 100,> 100,
Clc1cc(Cc2cc(Cl)c(Cl)c3c2OCOC3)c2c(c1Cl)COCO2,,> 100,,70.3,,72.9,,> 100,,,,64.4,,> 100,,> 100,,> 100,,
CCOc1ccccc1NC(=O)CC1SC(=Nc2ccc([N+](=O)[O-])cc2)NC1=O (centres undefined),,37,,39.7,,41.8,,> 100,,,,,,,,,,50.9,72.3,
CC(=O)[CH-]C(=O)c1ccccc1.CC(=O)[CH-]C(=O)c1ccccc1.[Eu+3].[OH-].[OH3+],,,> 100,> 100,,,,,,,> 100,> 100,> 100,> 100,> 100,> 100,> 100,> 100,> 100,> 100
COc1cc(-c2nn(-c3cccc(NC(=O)Nc4cc(C(F)(F)F)cc(C(F)(F)F)c4)c3)cc2-c2ccncc2)ccc1Cl,0.412,2.09,0.841,2.15,1.14,11.7,0.896,2.3,0.772,1.85,1.16,2.87,0.756,2.97,0.279,3.03,0.826,4.68,,
O=C(CC1(O)C(=O)Nc2c(Cl)ccc(Cl)c21)c1ccc2ccccc2c1 (centres undefined),,17.8,,27,,39.1,,36.2,,,,33.5,,27,,,,21.3,31,
N#Cc1c(NN)nc(NN)c(C#N)c1-c1ccccc1,,> 100,,> 100,,> 100,,> 100,,,,> 100,,> 100,,> 100,,> 100,> 100,
CN(C)c1ccc([O][Bi]([Cl])[Cl])cc1,> 100,> 100,82.2,> 100,> 100,> 100,,,,,> 100,> 100,> 100,> 100,,,87,> 100,> 100,> 100
Oc1cc(O)c2c(-c3c(O)c(-c4ccc(O)c(O)c4)[o+]c4cc(O)cc(O)c34)c(O)c(-c3ccc(O)c(O)c3)[o+]c2c1,,> 100,,81.1,,64,,> 100,,,,> 100,,> 100,,,,> 100,86.8,
Cn1c(=O)nc2n(-c3cccc(Br)c3)c3ccccc3nc-2c1=O,,21,,24,,22.2,,23.4,,,,50.5,,15.1,,35.9,,10.1,13.3,
O=c1cc2ccccc2nn1Cc1cccc(Cl)c1,,> 100,,,,> 100,,> 100,,,,> 100,,> 100,,> 100,,> 100,> 100,
O=C1NC(=O)C2C(=O)NC(=O)C1C2(c1ccccc1)c1cc[nH]c1 (centres undefined),,> 100,,> 100,,> 100,,> 100,,,,> 100,,> 100,,> 100,,> 100,> 100,
N/C(=C\c1ccc(OCc2ccccc2)c(OCc2ccccc2)c1[N+](=O)[O-])C(=O)O,,> 100,,> 100,,> 100,,> 100,,,,> 100,,,,> 100,,> 100,> 100,

Structure (SMILES),GI50 (KM12 colon) [µM],TGI (KM12 colon) [µM],GI50 (RXF 393 renal) [µM],TGI (RXF 393 renal) [µM],GI50 (NCI-H226 lung) [µM],TGI (NCI-H226 lung) [µM],GI50 (SF-268 CNS) [µM],TGI (SF-268 CNS) [µM],GI50 (MDA-MB-435) [µM],TGI (MDA-MB-435) [µM],GI50 (SK-OV-3 ovarian) [µM],TGI (SK-OV-3 ovarian) [µM],GI50 (HCT-15 colon) [µM],TGI (HCT-15 colon) [µM],GI50 (K-562 leukemia) [µM],TGI (K-562 leukemia) [µM],GI50 (M14 melanoma) [µM],TGI (M14 melanoma) [µM],TGI (EKVX NSCLC) [µM],GI50 (EKVX NSCLC) [µM]
Cc1ccccc1C(=O)c1ccccc1O,,> 100,,> 100,,> 100,,> 100,,,,> 100,,> 100,,> 100,,> 100,> 100,
CC(=O)[CH-]C(=O)c1ccccc1.CC(=O)[CH-]C(=O)c1ccccc1.CC(C)CCCC(C)[C@H]1CCC2[C@@H]3CC=C4C[C@@H]([O-])CC[C@]4(C)C3CC[C@@]21C.CC[O-].[Ti+4] (some centres undefined),39.6,> 100,,,> 100,> 100,50.2,> 100,,,> 100,> 100,53.8,> 100,33.1,> 100,48.3,> 100,> 100,66.8
N#C/C(=C/c1ccc[nH]1)P(=O)(O)O,,> 100,,> 100,,> 100,,> 100,,,,> 100,,> 100,,> 100,,> 100,> 100,
COC(=O)C(=O)OC1(C(C)=O)CC2(c3ccccc3)OC1(c1ccccc1)c1ccccc12 (centres undefined),,,,29,,31.7,,44,,,,95.5,,34.1,,> 100,,31.9,42,
Oc1ccccc1C=NCc1ccco1,,> 100,,> 100,,> 100,,> 100,,,,> 100,,,,> 100,,> 100,> 100,
CC1(C)N=C(N)N=C(N)N1c1ccc(OCCCCOc2ccc(S(=O)(=O)F)cc2)c(Cl)c1,0.279,11.7,0.363,23.2,0.58,28.1,0.076,16.4,0.0604,16.3,5.88,24.9,1.12,> 100,0.0597,15.8,0.116,15.3,,
CCC/C(=N/NC(=O)C(N)=O)C(CC)C(=O)CCC(=O)N(Cc1ccccc1)Cc1ccccc1 (centres undefined),,> 100,,> 100,,> 100,,> 100,,,,> 100,,> 100,,> 100,,> 100,> 100,
Cc1ccc(/C=C2/SC(Nc3nc(-c4csc(NC5=NC(=O)/C(=C\c6ccc(C)cc6)S5)n4)cs3)=NC2=O)cc1,3.47,> 50,23.8,> 50,1.58,28,8.98,> 50,,,,,,,1.91,> 50,1.31,7.74,> 50,14.9
CC1(CO)OC(n2cc(C(=O)NC(=O)OCc3ccccc3)c(=O)[nH]c2=O)CC1O (centres undefined),,> 100,,,,> 100,,> 100,,,,> 100,,> 100,,> 100,,> 100,,
CC(C)c1ccc(C2C3=C(N=C4SCC(=O)N42)C(=O)c2ccccc23)cc1 (centres undefined),,> 100,,,,> 100,,> 100,,,,> 100,,> 100,,> 100,,> 100,> 100,
CCOc1ccc(-c2nonc2NC(=O)c2cccc(C)c2)cc1OCC,> 100,> 100,> 100,> 100,> 100,> 100,90.5,> 100,> 100,> 100,> 100,> 100,> 100,> 100,> 100,> 100,,,,
COc1cc(/C=C(\C#N)C(=O)c2ccccc2)ccc1O,,> 100,,,,> 100,,> 100,,,,> 100,,> 100,,> 100,,> 100,> 100,
CC1=C2C[C@H]3[C@@H](CC[C@@H]4CC(NS(C)(=O)=O)CC[C@@]43C)[C@@H]2CC[C@@]2(C1)O[C@@H]1C[C@H](C)CN[C@H]1[C@H]2C (some centres undefined),9.22,22.6,3.65,15.6,5.44,21.1,12.1,26.6,8.1,22.8,8.49,21.2,5.9,21.4,4.25,31.6,7.92,22.6,,
Fc1ccc2c(c1)c(-c1nc(-c3c[nH]c4ncccc34)cs1)cn2CCCN1CCCCC1,,,,,,,1.64,3.42,1.66,3.17,1.81,3.43,,,1.72,3.6,1.76,3.48,,
O=[N+]([O-])c1nccn1CC(O)CN1CC1 (centres undefined),,> 100,,98.2,,> 100,,> 100,,,,94.7,,> 100,,> 100,,> 100,> 100,
C/C(=N\Nc1cc(C)c2cc(C)ccc2n1)c1ccccn1,0.0772,1.79,0.113,1.53,0.0366,1.05,0.047,1.62,0.145,1.79,0.0743,7.21,,1.93,0.095,1.43,0.0684,1.32,,
C[S+](C)CCOC(=O)C(=[N+]=[N-])c1ccc([N+](=O)[O-])cc1,,> 100,,> 100,,> 100,,> 100,,,,> 100,,> 100,,> 100,,> 100,> 100,
COC(=O)/C([Se]c1c(C)cc(C)cc1C)=C(\[Se]c1c(C)cc(C)cc1C)C(=O)OC,,> 100,,> 100,,> 100,,> 100,,,,> 100,,> 100,,> 100,,> 100,> 100,
N#CC(C(=O)CCC(=O)C(C#N)c1ccccc1)c1ccccc1 (centres undefined),,> 100,,> 100,,> 100,,> 100,,,,> 100,,> 100,,> 100,,> 100,> 100,
